Data taken from patent publication US20020137929A1, “1 - (3-heterocyclylphenyl) isothiourea, -isourea, -guanidine and -amidine herbicidal agents” (Intellectual Property Department, BASF Aktiengesellschaft, priority 1998, published 2002).

Tests used:
[1] = tested on: ABUTH (Velvetleaf); assay: Postemergence herbicidal evaluation; format: in vivo, Abutilon theophrasti; settings: postemergence
Procedure, shortened: (§1)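 Young plants, roughly two weeks from seeding, receive the active ingredient as a sprayed dispersion (acetone/water 50/50, 0.5% TWEEN 20) at 40 psi. Doses span about 0.0156 to 0.500 kg/ha. A visual score from 0 to 9 compares treated with control plants four to five weeks on.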

[2] = tested on: AMBEL (Ragweed, Common); assay: Postemergence herbicidal evaluation; format: in vivo, Ambrosia artemisifolia; settings: postemergence
Procedure, shortened: as §1

[3] = tested on: ECHCG (Barnyardgrass); assay: Postemergence herbicidal evaluation; format: in vivo, Echinochloa crus-galli; settings: postemergence
Procedure, shortened: as §1

[4] = tested on: SETVI (Foxtail, Green); assay: Postemergence herbicidal evaluation; format: in vivo, Setaria viridis; settings: postemergence
Procedure, shortened: as §1

[5] = tested on: GLXMAW (Soybean, Williams); assay: Postemergence herbicidal evaluation; format: in vivo, Glycine max, (L.) Merr. cv Williams; settings: postemergence
Procedure, shortened: as §1

[6] = tested on: TRZAWR (Wheat, Winter, cv Riband); assay: Postemergence herbicidal evaluation; format: in vivo, Triticum aestivum; settings: postemergence
Procedure, shortened: as §1

[7] = tested on: CASOB (Sicklepod); assay: Preemergence herbicidal evaluation; format: in vivo, Cassia obtusifolia; settings: rated 4-5 weeks after treatment
Procedure, shortened: (§2)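 Test compound, dissolved in aqueous acetone, was sprayed over planted soil cups at an equivalent of about 0.0156 to 0.500 kg/ha; seeds had been mixed with potting soil. Greenhouse growth followed, with visual 0-9 scoring of injury at four to five weeks.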

[8] = tested on: CHEAL (Lambsquarters, Common); assay: Preemergence herbicidal evaluation; format: in vivo, Chenopodium album; settings: rated 4-5 weeks after treatment
Procedure, shortened: as §2

[9] = tested on: ECHCG (Barnyardgrass); assay: Preemergence herbicidal evaluation; format: in vivo, Echinochloa crus-galli; settings: rated 4-5 weeks after treatment
Procedure, shortened: as §2

[10] = tested on: ZEAMX (Corn, Field); assay: Preemergence herbicidal evaluation; format: in vivo, Zea mays; settings: rated 4-5 weeks after treatment
Procedure, shortened: as §2

[11] = tested on: ECHORC (Watergrass (Calif.)); assay: Postemergence weed control under flooded paddy conditions; format: in vivo, Echinochloa oryzoides; settings: postemergence weeds, 3-4 weeks after treatment
Source text: Results of herbicide evaluation are expressed on a rating scale (0-9). The scale is based upon a visual observation of plant stand, vigor, malformation, size, chlorosis and overall plant appearance as compared with a control.
Plastic containers containing weeds which are 3 to 5 cm tall and rice seedlings at the 1.5 to 2.5 leaf stage are flooded with water. The water is maintained at 1.5 to 3 cm above the soil surface for the duration of the experiment. Test compounds are applied as aqueous/ acetone mixtures 50/50 v/v directly into the flood water to provide the equivalent of about 0.0313 to 0.500 kg/ha of active ingredient. The treated containers are placed on greenhouse benches and cared for in accordance with conventional greenhouse procedures. Three to four weeks after treatment, the test is terminated and each container is examined and herbicidal effect rated according to the rating system provided in Example 37. The compounds evaluated are reported by compound number given in Example 37.

**Q.** How did the ABUTH herbicidal rating ([1]; rate 0.0157 kg/ha) turn out when C=CCN1C(=O)CSC1=Nc1cc(N2C(=O)C3=C(CCCC3)C2=O)c(F)cc1Cl [Compound 2, N-{5-[(3-allyl-4-oxo-2-thiazolidinylidene)amino]-4-chloro-2-fluorophenyl}-1-cyclohexene-1,2-dicarboximide] was run?
**A.** 0.0

**Q.** What about the ABUTH herbicidal rating ([1]; rate 0.0313 kg/ha) of the same compound?
**A.** 4.0

**Q.** What about the ABUTH herbicidal rating ([1]; rate 0.0625 kg/ha) of the same compound?
**A.** 9.0

**Q.** What about the ABUTH herbicidal rating ([1]; rate 0.1250 kg/ha) of the same compound?
**A.** 9.0

**Q.** And the ABUTH herbicidal rating ([1]; rate 0.2500 kg/ha)?
**A.** 9.0

**Q.** What about the ABUTH herbicidal rating ([1]; rate 0.5000 kg/ha) of the same compound?
**A.** 9.0

**Q.** What about the AMBEL herbicidal rating ([2]; rate 0.0157 kg/ha) of the same compound?
**A.** 4.0

**Q.** And the AMBEL herbicidal rating ([2]; rate 0.0313 kg/ha)?
**A.** 2.0

**Q.** What about the AMBEL herbicidal rating ([2]; rate 0.0625 kg/ha) of the same compound?
**A.** 6.0

**Q.** And the AMBEL herbicidal rating ([2]; rate 0.1250 kg/ha)?
**A.** 2.0

**Q.** And the AMBEL herbicidal rating ([2]; rate 0.2500 kg/ha)?
**A.** 6.0

**Q.** And the AMBEL herbicidal rating ([2]; rate 0.5000 kg/ha)?
**A.** 9.0

**Q.** And the ECHCG herbicidal rating ([3]; rate 0.0157 kg/ha)?
**A.** 0.0

**Q.** What about the ECHCG herbicidal rating ([3]; rate 0.0313 kg/ha) of the same compound?
**A.** 0.0

**Q.** And the ECHCG herbicidal rating ([3]; rate 0.0625 kg/ha)?
**A.** 0.0

**Q.** And the ECHCG herbicidal rating ([3]; rate 0.1250 kg/ha)?
**A.** 0.0

**Q.** And the ECHCG herbicidal rating ([3]; rate 0.2500 kg/ha)?
**A.** 0.0

**Q.** And the ECHCG herbicidal rating ([3]; rate 0.5000 kg/ha)?
**A.** 0.0

**Q.** And the SETVI herbicidal rating ([4]; rate 0.0157 kg/ha)?
**A.** 0.0

**Q.** What about the SETVI herbicidal rating ([4]; rate 0.0313 kg/ha) of the same compound?
**A.** 0.0

**Q.** And the SETVI herbicidal rating ([4]; rate 0.1250 kg/ha)?
**A.** 0.0

**Q.** What about the SETVI herbicidal rating ([4]; rate 0.2500 kg/ha) of the same compound?
**A.** 0.0

**Q.** What about the SETVI herbicidal rating ([4]; rate 0.5000 kg/ha) of the same compound?
**A.** 0.0

**Q.** What about the GLXMAW herbicidal rating ([5]; rate 0.0157 kg/ha) of the same compound?
**A.** 3.5

**Q.** And the GLXMAW herbicidal rating ([5]; rate 0.0313 kg/ha)?
**A.** 3.5

**Q.** What about the GLXMAW herbicidal rating ([5]; rate 0.0625 kg/ha) of the same compound?
**A.** 3.5

**Q.** And the GLXMAW herbicidal rating ([5]; rate 0.1250 kg/ha)?
**A.** 3.0

**Q.** And the GLXMAW herbicidal rating ([5]; rate 0.2500 kg/ha)?
**A.** 3.0

**Q.** What about the GLXMAW herbicidal rating ([5]; rate 0.5000 kg/ha) of the same compound?
**A.** 3.0

**Q.** And the TRZAWR herbicidal rating ([6]; rate 0.0157 kg/ha)?
**A.** 1.5

**Q.** And the TRZAWR herbicidal rating ([6]; rate 0.0313 kg/ha)?
**A.** 2.5

**Q.** What about the TRZAWR herbicidal rating ([6]; rate 0.0625 kg/ha) of the same compound?
**A.** 3.0

**Q.** What about the TRZAWR herbicidal rating ([6]; rate 0.1250 kg/ha) of the same compound?
**A.** 2.5

**Q.** And the TRZAWR herbicidal rating ([6]; rate 0.2500 kg/ha)?
**A.** 2.5

**Q.** And the TRZAWR herbicidal rating ([6]; rate 0.5000 kg/ha)?
**A.** 3.0

**Q.** And the “CASOB preemergence herbicidal rating” value ([7]; rate 0.0313 kg/ha)?
**A.** 2.0

**Q.** And the “CASOB preemergence herbicidal rating” value ([7]; rate 0.0625 kg/ha)?
**A.** 2.0

**Q.** And the “CASOB preemergence herbicidal rating” value ([7]; rate 0.5000 kg/ha)?
**A.** 2.0

**Q.** What about the “CHEAL preemergence herbicidal rating” value ([8]; rate 0.0313 kg/ha) of the same compound?
**A.** 7.0

**Q.** What about the “CHEAL preemergence herbicidal rating” value ([8]; rate 0.2500 kg/ha) of the same compound?
**A.** 9.0

**Q.** And the “CHEAL preemergence herbicidal rating” value ([8]; rate 0.5000 kg/ha)?
**A.** 9.0

**Q.** And the “ECHCG preemergence herbicidal rating” value ([9]; rate 0.0313 kg/ha)?
**A.** 0.0

**Q.** And the “ECHCG preemergence herbicidal rating” value ([9]; rate 0.0625 kg/ha)?
**A.** 0.0

**Q.** What about the “ECHCG preemergence herbicidal rating” value ([9]; rate 0.1250 kg/ha) of the same compound?
**A.** 4.0

**Q.** What about the “ECHCG preemergence herbicidal rating” value ([9]; rate 0.2500 kg/ha) of the same compound?
**A.** 0.0

**Q.** And the “ECHCG preemergence herbicidal rating” value ([9]; rate 0.5000 kg/ha)?
**A.** 8.0

**Q.** What about the “ZEAMX preemergence herbicidal rating” value ([10]; rate 0.0313 kg/ha) of the same compound?
**A.** 0.0

**Q.** What about the “ZEAMX preemergence herbicidal rating” value ([10]; rate 0.0625 kg/ha) of the same compound?
**A.** 0.0

**Q.** And the “ZEAMX preemergence herbicidal rating” value ([10]; rate 0.1250 kg/ha)?
**A.** 0.0

**Q.** What about the “ZEAMX preemergence herbicidal rating” value ([10]; rate 0.2500 kg/ha) of the same compound?
**A.** 0.0

**Q.** And the “ZEAMX preemergence herbicidal rating” value ([10]; rate 0.5000 kg/ha)?
**A.** 0.0

**Q.** And the “Herbicidal rating ECHORC” value ([11]; rate 0.0313 kg/ha)?
**A.** 1.0

**Q.** And the “Herbicidal rating ECHORC” value ([11]; rate 0.0625 kg/ha)?
**A.** 1.0

**Q.** What about the “Herbicidal rating ECHORC” value ([11]; rate 0.1250 kg/ha) of the same compound?
**A.** 3.5

**Q.** What about the “Herbicidal rating ECHORC” value ([11]; rate 0.2500 kg/ha) of the same compound?
**A.** 4.0

**Q.** And the “Herbicidal rating ECHORC” value ([11]; rate 0.5000 kg/ha)?
**A.** 4.5
